Assay results published in patent publication US8003599B2, “Inhibitors of L1 and ADAM10 for the treatment of carcinomas” (Deutsches Krebsforschungszentrum, priority 2004, dated 2011).
“Also recorded” adds a separate entry of the source.

Test system: HEK293-hL1 cells
Assay: Haptotactic cell migration assay in Transwell chambers, HEK293-hL1 cells
Type: cell-based, human
Details: fibronectin, 24 h after transient transfection (FIG. 11)
Protocol: (C) Inhibition of haptotactic cell migration in the absence or presence of the indicated mAbs to integrins at a final concentration of 10 μg/ml. FN at 10 μg/ml or BSA for control were coated onto the backside of Transwell chambers. Cells were seeded into the top chamber and allowed to transmigrate for 16 hr at 37° C. The antibody was present during the assay time. Each determination was done in quadruplicate and transmigrated cells were stained from the back of the filter. The dye was eluted from the filter and measured at 595 nm. The amount of dye is proportional to the number of transmigrated cells. Values for the migration on BSA were below 0.25 O.D. units for each cell type.
The haptotactic cell migration assay on fibronectin, laminin or BSA was performed in Transwell chambers (Costar, 6.5 mm diameter, 5 um pore size) and was described in detail elsewhere (Mechtersheimer et al., supra). Transmigrated cells were quantified by staining of the transwell membranes with cristalviolet solution as described (Mechtersheimer at al., supra). The eluted dye was measured at 595 nm in an ELISA reader.

With `COc1cccc(-c2cc(=O)c3ccccc3o2)c1N` [PD59098] the “suppression of enhanced (L1-dependent) migration of HEK-293-hL1 wild type cells” value was “same effect; also recorded: could block the L1-dependent migration”.
